The values that follow come from patent US9890138B2, “Diaminopyrimidine derivatives and processes for the preparation thereof” (YUHAN CORPORATION, priority 2011, dated 2018).

Counter-ions that a name gives are not always drawn.

The experiment deals with T1, human 5-HT4(a) (Homo sapiens, UniProt Q13639).
T1 construct: host or cells: GeneBlAzer HTR4-CRE-bla CHO-K1 cells
T1 sequence (Q13639 1-387 isoform Q13639-2): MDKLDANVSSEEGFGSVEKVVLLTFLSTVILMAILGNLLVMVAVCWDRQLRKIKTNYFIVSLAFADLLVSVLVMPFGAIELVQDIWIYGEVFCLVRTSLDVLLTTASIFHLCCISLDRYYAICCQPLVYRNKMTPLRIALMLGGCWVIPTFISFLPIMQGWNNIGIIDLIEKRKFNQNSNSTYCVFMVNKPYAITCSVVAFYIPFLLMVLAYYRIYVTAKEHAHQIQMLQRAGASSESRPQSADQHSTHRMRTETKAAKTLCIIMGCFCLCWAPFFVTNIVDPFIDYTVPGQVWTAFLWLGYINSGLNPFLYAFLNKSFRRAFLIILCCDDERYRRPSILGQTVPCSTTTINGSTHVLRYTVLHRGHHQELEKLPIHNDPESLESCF
In words: Evaluation of agonistic activity in CHO-K1 cells expressing human 5-HT4(a) (GeneBlAzer HTR4-CRE-bla CHO-K1, beta-lactamase reporter). It counts as cell-based. As to conditions: CHO-K1 cells stably expressing human 5-HT4(a). The gist of the method:
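GeneBlAzer HTR4-CRE-bla CHO-K1 cells, 10^4/well overnight, exposed 5 h to compounds at 8 concentrations in medium with 1% DMSO in the added solution. β-lactamase substrate 2 h in dark; 410 nm excitation, 465/535 nm emission ratio; EC50 by non-linear regression.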
For `CCCc1cc(N2CC[C@H](NC(C)=O)C2)nc(Nc2ccc(N)c([N+](=O)[O-])c2)n1` [Example 286, (S)—N-{1-[2-(4-amino-3-nitrophenylamino)-6-propylpyrimidin-4-yl]pyrrolidin-3-yl}acetamide hydrochloride], the EC50 came out at 0.0047 nM.

Consider `CCCc1cc(N2CC[C@H](NC(C)=O)C2)nc(Nc2ccc(OC)c(N)c2)n1` [Example 289], for which the EC50 was determined as 0.062 nM.

For `CCCc1cc(N2CC[C@H](NC(C)=O)C2)nc(Nc2ccc(Cl)c(N)c2)n1` [Example 290], the EC50 was 0.013 nM. Against the preceding compound, the EC50 is about 4.8-fold lower.

The compound `CCCc1cc(N2CC[C@H](NC(C)=O)C2)nc(Nc2ccc(F)c(N)c2)n1` [Example 291] registered an EC50 of 0.0074 nM.

`CCCc1cc(N2CC[C@H](NC(C)=O)C2)nc(Nc2ccc(C)c(N)c2)n1` [Example 292, (S)—N-{1-[2-(3-amino-4-methylphenylamino)-6-propylpyrimidin-4-yl]pyrrolidin-3-yl}acetamide]: the EC50 stood at 0.038 nM.

Compound `CCCc1cc(N2CCC(NC(C)=O)C2)nc(Nc2ccc(N)c([N+](=O)[O-])c2)n1` (stereo not drawn) [Example 293] returned an EC50 of 0.0043 nM.

With `CCCc1cc(N2CCC(NC(C)=O)C2)nc(Nc2cccc(C#N)c2)n1` (stereo not drawn) [Example 294, N-{1-[2-(3-cyanophenylamino)-6-propylpyrimidin-4-yl]pyrrolidin-3-yl}acetamide], the midpoint of the response, the EC50, lay at 0.076 nM.

Take `CCCc1cc(N2CCC(NC(C)=O)C2)nc(Nc2cccc([N+](=O)[O-])c2)n1` (stereo not drawn) [Example 295, N-{1-[2-(3-nitrophenylamino)-6-propylpyrimidin-4-yl]pyrrolidin-3-yl}acetamide]: the EC50 was 0.048 nM.

For the compound `CCCc1cc(N2CCC(NC(C)=O)C2)nc(Nc2ccc(F)c([N+](=O)[O-])c2)n1` (stereo not drawn) [Example 296], the EC50 was found to be 0.039 nM.

`CCCc1cc(N2CCC(NC(C)=O)C2)nc(Nc2ccc(Cl)c([N+](=O)[O-])c2)n1` (stereo not drawn) [Example 297, N-{1-[2-(4-chloro-3-nitrophenylamino)-6-propylpyrimidin-4-yl]pyrrolidin-3-yl}acetamide] showed an EC50 of 0.028 nM.

`CCCc1cc(N2CCC(NC(C)=O)C2)nc(Nc2cccc(C(F)(F)F)c2)n1` (stereo not drawn) [Example 301] displayed an EC50 of 0.11 nM.

In turn, `CCCc1cc(N2CCC(NC(C)=O)C2)nc(Nc2cccc(Cl)c2)n1` (stereo not drawn) [Example 302] showed an EC50 of 0.42 nM. This EC50 is about 3.8-fold higher than that of the compound before.

On to `CCCc1cc(N2CCC(NC(C)=O)C2)nc(Nc2cc(Cl)ccc2C)n1` (stereo not drawn) [Example 303], for which the EC50 was 0.12 nM. Compared with the last compound, the EC50 is about 3.5-fold lower.

The compound `CCCc1cc(N2CCC(NC(C)=O)C2)nc(Nc2ccc(C)c(Cl)c2)n1` (stereo not drawn) [Example 304] came in with an EC50 of 0.07 nM. Compared with the last compound, the EC50 is about 1.7-fold lower.

`CCCc1cc(N2CCC(NC(C)=O)C2)nc(Nc2cccc(SC)c2)n1` (stereo not drawn) [Example 305] showed an EC50 of 0.18 nM. This EC50 lies about 2.6-fold higher than the previous one.

Take `CCCc1cc(N2CCC(NC(C)=O)C2)nc(Nc2ccc3[nH]c(C(F)(F)F)nc3c2)n1` (stereo not drawn) [Example 307]: it took 0.24 nM to reach a half-maximal effect (EC50).

`CCCc1cc(N2CCC(NC(C)=O)C2)nc(Nc2ccc3c(C)cc(=O)oc3c2)n1` (stereo not drawn) [Example 309] showed an EC50 of 0.076 nM. Compared with the last compound, the EC50 is about 3.2-fold lower.

For `CCCc1cc(N2CCC(NC(C)=O)C2)nc(Nc2cnc3ccccc3c2)n1` (stereo not drawn) [Example 310], it took 0.37 nM to reach a half-maximal effect (EC50).

Compound `CCCc1cc(N2CCC(NC(C)=O)C2)nc(Nc2ccc(N)c(C#N)c2)n1` (stereo not drawn) [Example 311] gave an EC50 of 0.019 nM. This EC50 is about 19-fold lower than that of the compound before.

Compound `CCCc1cc(N2CCC(NC(C)=O)C2)nc(Nc2ccc(F)c(N)c2)n1` (stereo not drawn) [Example 312] displayed an EC50 of 0.023 nM.

`CCCc1cc(N2CCC[C@H]2C)nc(Nc2ccc(Cl)c([N+](=O)[O-])c2)n1` [Example 313, (R)—N-(4-chloro-3-nitrophenyl)-4-(2-methylpyrrolidin-1-yl)-6-propylpyrimidin-2-amine] yielded an EC50 of 0.078 nM. Compared with the last compound, the EC50 is about 3.4-fold higher.

In turn, `CCCc1cc(N2CCC[C@H]2C)nc(Nc2cccc(SC)c2)n1` [Example 314] registered an EC50 of 0.18 nM.

Regarding `CCCc1cc(N2CCC[C@H]2C)nc(Nc2ccc3cc[nH]c3c2)n1` [Example 315], the EC50 was found to be 0.028 nM.

In turn, `CCCc1cc(N2CCC[C@H]2C)nc(Nc2cccc(C(F)(F)F)c2)n1` [Example 316] displayed an EC50 of 0.21 nM.

One may read the EC50 as the concentration at which the effect is half-maximal.
